Test results reported in PMC9145245, “Synthesis and Biochemical Evaluation of 8H-Indeno[1,2-d]thiazole Derivatives as Novel SARS-CoV-2 3CL Protease Inhibitors” (Molecules, 2022).
Like-named read-outs stand apart in the source and are kept apart here.

Target: SARS-CoV-2 3CL^pro (Severe acute respiratory syndrome coronavirus 2, UniProt P0DTD1)
Test: biochemical
Type: biochemical
Settings: for inhibition at 20 µM: 20 μM compound; for inhibitory activity against SARS-CoV-2 3CL^pro (in words, SAR discussion): compared with 7a (7i–7k with 7h)
[1] = recombinant 3CLpro 40 nM, substrate 40 μM, mean ± SD, n = 3, read-out: SARS-CoV-2 3CL^pro IC50
[2] = recombinant 3CLpro 40 nM, mean ± SD, n = 3

Row | SMILES | IC50 [1] [µM] | inhibition at 20 µM [2] [%] | inhibitory activity against SARS-CoV-2 3CL^pro (in words, SAR discussion) | IC50 [µM]
1 | COc1cc(OC)cc(C(=O)Nc2nc3c(s2)Cc2ccc(OC)cc2-3)c1 [compound 4, 3,5-dimethoxy-N-(5-methoxy-8H-indeno[1,2-d]thiazol-2-yl)benzamide] | 6.42 ± 0.9 |  |  | 
2 | COc1cc(OC)cc(C(=O)Nc2nc3c(s2)Cc2cc(OC)ccc2-3)c1 [compound 7a] | 1.28 ± 0.17 | 89.5 ± 2 |  | 
3 | CCCCOc1ccc2c(c1)Cc1sc(NC(=O)c3cc(OC)cc(OC)c3)nc1-2 [compound 7b, N-(6-butoxy-8H-indeno[1,2-d]thiazol-2-yl)-3,5-dimethoxybenzamide] | > 20 | 0.5 ± 4.9 | completely abolished | 
4 | COc1cc(OC)cc(C(=O)Nc2nc3c(s2)Cc2cc(OCC(C)C)ccc2-3)c1 [compound 7c, N-(6-isobutoxy-8H-indeno[1,2-d]thiazol-2-yl)-3,5-dimethoxybenzamide] | > 20 | -3.1 ± 1.7 | completely abolished | 
5 | COc1cc(OC)cc(C(=O)Nc2nc3c(s2)Cc2cc(C)ccc2-3)c1 [compound 7d, 3,5-dimethoxy-N-(6-methyl-8H-indeno[1,2-d]thiazol-2-yl)benzamide] | > 20 | 21.7 ± 2.2 | completely abolished | 
6 | COc1cc(OC)cc(C(=O)Nc2nc3c(s2)Cc2cc(Cl)ccc2-3)c1 [compound 7e, N-(6-chloro-8H-indeno[1,2-d]thiazol-2-yl)-3,5-dimethoxybenzamide] | > 20 | 27.2 ± 5.3 | completely abolished | 
7 | COc1ccc2c(c1)Cc1sc(NC(=O)c3cc(OC)c(OC)c(OC)c3)nc1-2 [compound 7f, 3,4,5-trimethoxy-N-(6-methoxy-8H-indeno[1,2-d]thiazol-2-yl)benzamide] | > 20 | 5 ± 5.6 | dropped significantly | 
8 | COc1ccc2c(c1)Cc1sc(NC(=O)c3cc(OC(C)=O)cc(OC(C)=O)c3)nc1-2 [compound 7g, 5-((6-methoxy-8H-indeno[1,2-d]thiazol-2-yl)carbamoyl)-1,3-phenylene diacetate] | > 20 | 32.6 ± 6.8 | dropped significantly | 
9 | COc1cccc(C(=O)Nc2nc3c(s2)Cc2cc(OC)ccc2-3)c1 [compound 7h, 3-methoxy-N-(6-methoxy-8H-indeno[1,2-d]thiazol-2-yl)benzamide] | 2.86 ± 0.11 | 72.5 ± 6.1 | almost maintained its inhibitory activities | 
10 | COc1ccc2c(c1)Cc1sc(NC(=O)c3cccc(F)c3)nc1-2 [compound 7i, 3-fluoro-N-(6-methoxy-8H-indeno[1,2-d]thiazol-2-yl)benzamide] | > 20 | 20.3 ± 4.7 |  | 
11 | COc1ccc2c(c1)Cc1sc(NC(=O)c3cccs3)nc1-2 [compound 7j, N-(6-methoxy-8H-indeno[1,2-d]thiazol-2-yl)thiophene-2-carboxamide] |  | 31.9 ± 18.2 |  | > 20
12 | COc1ccc2c(c1)Cc1sc(NC(=O)c3ccc(Cl)cc3)nc1-2 [compound 7k, 4-chloro-N-(6-methoxy-8H-indeno[1,2-d]thiazol-2-yl)benzamide] | > 20 | 1.5 ± 4.5 |  | 
13 | COc1cc(OC)cc(C(=O)Nc2nc3c(s2)CCc2cc(OC)ccc2-3)c1 [compound 7l] | > 20 | -13.1 ± 1.7 | did not show any inhibitory activity | 
14 | COc1cc(OC)cc(C(=O)Nc2nc(-c3ccc(OC)cc3C)cs2)c1 [compound 10a] | > 20 | 1.9 ± 2.1 | lost inhibitory activities | 
15 | COc1cc(OC)cc(C(=O)Nc2nc(-c3ccc(OC)c(C)c3)cs2)c1 [compound 10b, 3,5-dimethoxy-N-(4-(4-methoxy-3-methylphenyl)thiazol-2-yl)benzamide] | > 20 | 1.8 ± 3.5 | lost inhibitory activities | 
